Results published in patent US11286241B2, “Compositions and methods for treating cancer” (GLAX LLC, priority 2018, dated 2022).
Entries after “also recorded” stand apart in the source; their conditions may differ.

Experiments:
Gli pathway = Gli pathway in HCC (FIG. 13); assay type: cell-based
[1] = system: human normal ductal epithelial (HMEC) cells; experiment: Cell viability of normal ductal epithelial cells (FIG. 12D); assay type: cell-based
[2] = system: prostate cancer DU145 cells; experiment: Combination apoptosis in prostate cancer DU145 cells; assay type: cell-based; conditions: with PF05212384
lung cancer A549 cells = experiment: Apoptosis in lung cancer cells (FIG. 14); assay type: cell-based
liver cancer xenograft = experiment: Xenografted tumor growth, liver cancer model (FIG. 18); assay type: in vivo
pancreatic cancer cells = experiment: Combination cell viability in pancreatic cancer cells (FIG. 17); assay type: cell-based, human
breast cancer xenograft = experiment: Xenografted tumor growth, breast cancer model (FIG. 18); assay type: in vivo
[3] = system: prostate cancer PC-3 cells; experiment: Combination apoptosis in prostate cancer PC-3 cells; assay type: cell-based; conditions: with PF05212384
[4] = system: human pancreatic cancer cells; experiment: Cell viability of human pancreatic cancer cells (FIG. 12A, B); assay type: cell-based
[5] = system: prostate cancer PC-3 cells; experiment: Apoptosis in prostate cancer cells (FIG. 14); assay type: cell-based
Gli reporter = Gli reporter activity (FIG. 12E); assay type: cell-based
[6] = system: hepatocarcinoma (HCC)/liver cancer cells; experiment: Cell viability of hepatocarcinoma cells (FIG. 13); assay type: cell-based
[7] = system: human normal pancreatic ductal epithelial (HPNE) cells; experiment: Cell viability of normal pancreatic ductal epithelial cells (FIG. 12C); assay type: cell-based
human normal hepatocytes = experiment: Cell viability of normal hepatocytes (FIG. 13); assay type: cell-based
brain cancer stem cells = experiment: Cell viability of brain cancer stem cells (FIG. 15); assay type: cell-based, human
[8] = system: pancreatic cancer AsPC-1 cells; experiment: Apoptosis in pancreatic cancer AsPC-1 cells; assay type: cell-based
[9] = system: prostate cancer xenograft; experiment: Xenografted tumor growth, prostate cancer model (FIG. 18); assay type: in vivo
[10] = system: colorectal cancer HCT116 cells; experiment: Combination apoptosis in colorectal cancer HCT116 cells; assay type: cell-based; conditions: with PF05212384, listed as SST7
[11] = system: pancreatic cancer xenograft; experiment: Xenografted tumor growth, pancreatic cancer model (FIG. 18); assay type: in vivo
liver cancer HEPG2 cells = experiment: Apoptosis in liver cancer HEPG2 cells; assay type: cell-based
[12] = system: human prostate cancer cells; experiment: Combination cell viability in human prostate cancer cells (FIG. 16); assay type: cell-based; conditions: with PF05212384 (PI3K/mTOR dual inhibitor)
[13] = system: human breast cancer cells; experiment: Combination cell viability in human breast cancer cells (FIG. 17); assay type: cell-based
liver cancer HEP3B cells = experiment: Combination apoptosis in liver cancer HEP3B cells; assay type: cell-based; conditions: with PF05212384, listed as SST7
[14] = system: human breast cancer cells; experiment: Cell viability of human breast cancer cells (FIG. 12D); assay type: cell-based
[15] = system: Gli1, Patched-1, Cyclin D1, Bcl-2, and Nanog; experiment: Expression of Gli target genes in breast cancer cells (FIG. 12F); assay type: cell-based
human brain cancer cells = experiment: Cell viability of human brain cancer cells (FIG. 15); assay type: cell-based
[16] = with histone deacetylase inhibitor SAHA

`OC(CNc1ccc(Cl)cc1)CNc1ccc(-c2nc3ccccc3o2)cc1` (stereo not shown) [Compound 8, 1-(4-(benzo[d]oxazol-2-yl)phenylamino)-3-(4-chlorophenylamino)propane-2-ol] was tested, and the Gli pathway (Gli pathway) was “inhibits Gli pathway”, the cell viability [1] was “has no effect” and the “apoptosis, combination” value [2] was “act in a cooperative manner to induce apoptosis”. For the same compound, the apoptosis (lung cancer A549 cells) was “induces apoptosis”, the xenografted tumor growth (liver cancer xenograft) was “inhibits xenografted tumor growth” and the “cell viability, combination” value (pancreatic cancer cells; with PF05212384) was “co-operates”. The “cell viability, combination” value (pancreatic cancer cells; [16]) was “co-operates”, the xenografted tumor growth (breast cancer xenograft) was “inhibits xenografted tumor growth” and the “apoptosis, combination” value [3] was “act in a cooperative manner to induce apoptosis”. For the same compound, the cell viability [4] was “inhibits cell viability”, the apoptosis [5] was “induces apoptosis” and the Gli reporter activity (Gli reporter) was “inhibits”. The cell viability [6] was “inhibits cell viability”, the cell viability [7] was “has no effect” and the cell viability (human normal hepatocytes) was “has no effect”. The cell viability (brain cancer stem cells) was “inhibits cell viability”, the apoptosis [8] was “induces apoptosis” and the xenografted tumor growth [9] was “inhibits xenografted tumor growth”. The “apoptosis, combination” value [10] was “synergistic; also recorded: act in a cooperative manner to induce apoptosis”, the xenografted tumor growth [11] was “inhibits xenografted tumor growth” and the apoptosis (liver cancer HEPG2 cells) was “induces apoptosis”. The “cell viability, combination” value [12] was “co-operates”, the “cell viability, combination” value ([13]; with PF05212384) was “co-operates” and the “cell viability, combination” value [13, 16] was “co-operates”. For the same compound, the “apoptosis, combination” value (liver cancer HEP3B cells) was “synergistic; also recorded: act in a cooperative manner to induce apoptosis”, the cell viability [14] was “inhibits cell viability” and the “expression of Gli1, Patched-1, Cyclin D1, Bcl-2, and Nanog” value [15] was “inhibits”. For the same compound, the cell viability (human brain cancer cells) was “inhibits cell viability”.
